Patent US20250270230A1, “NOVEL SYNTHETIC STEPS FOR THE MANUFACTURING METHOD OF THE PDE4B-INHIBITOR 1-({(5R)-2-[4-(5-CHLOROPYRIMIDINE-2-YL)PIPERIDINE-1-YL]-5-OXIDO-6,7-DIHYDROTHIENO[3,2-D]PYRIMIDINE-4-YL}AMINO)CYCLOBUTYL]METHANOL” (Boehringer Ingelheim International GmbH, priority 2023, published 2025)
Read-outs that look alike come from different tables or passages of the source. One block for each compound: values may come before it.

Legend:
[1] = Long-term stability of water-free material regarding hydrolysis side-reactions; assay type: physicochemical; conditions: water-free form (recrystallization variant A, 1,4-dioxane)
From the text: For example with the additional recrystallization step according to variant A (recrystallization from 1,4-dioxane) Intermediate XVIII is obtained as a water-free form (examples 1 and 2). The water-free material is long-term stable (>12 months) regarding hydrolysis side-reactions, which can occur at two positions of Intermediate XVII by forming IMP-A and IMP-B (see Scheme 5).
In comparison to the process as described in U.S. Pat. No. 8,609,670B, the additional recrystallization step after the enantioselective oxidation step according to variant A yielding Intermediate XVIII also improves the quality of the sulfoxide XVII critically. Hereby, Intermediate XVIII is obtained as a water-free form. The water-free material is long-term stable (>12 months) regarding hydrolysis side-reactions, which can occur at two positions of Intermediate XVII by forming the impurities IMP-A and IMP-B (see Scheme 14).

PDE4B subunit = PDE4B subunit (Homo sapiens, UniProt Q07343); conditions: cited from earlier work
[2] = system: patients with idiopathic pulmonary fibrosis (IPF); conditions: Phase II, cited from earlier work
[3] = Competitive slurries containing Form A, Form B and Form C (thermodynamic stability); assay type: physicochemical
Method: Few other crystalline forms were observed during the initial and extended solid form screening by using various techniques. […] Its thermodynamic stability has been confirmed by competitive slurries containing Form A, Form B and Form C. Form B was the predominant form in all solvents and temperature conditions, except for the solvent water (with a water activity of 1) at temperatures between 5 and 25° C. which yielded Form C.

[4] = Form conversion from crystalline Form A to Form B followed by Raman spectroscopy; assay type: physicochemical; conditions: 40° C., n-propanol/water, seeding with Form B
Method: Form A was charged to the reactor as the starting material. 7.0 VP of n-propanol and […] were used along with Raman probe to confirm the rate of conversion by holding the conversion at different temperature. The rate of form conversion from crystalline Form A to crystalline Form B of the PDE4B-inhibitor of formula XX was studied at 20, 40 and 70° C. with 10% seeding with crystalline Form B seeding crystals.
At 20 or 70° C., the conversion rate was similar, but definitely slower than at 40° C.
The temperature of 40° C. allows a full conversion of crystalline Form A into crystalline Form B in less than 4 hours, preferably even in 2 hours (see also FIGS. 1a and 1b). […] However, the crystallization procedure to yield the Compound of formula XX as crystalline Form B (on production scale) as described in Chapter 3.10 reduces the crystallization time down to not more than 9 hours from the timepoint of seeding, which means a significant improvement in the cycling time.

[5] = Stress test-experiments of the hydrolysis reactions of Intermediate XVII; assay type: physicochemical
Method: (§1) It is shown, that hydrolysis toward IMP-A occurs at 60° C. and 90° C. (examples 1 and 2). The hydrolysis reaction itself is promoted by titanium residues, as example 2 with 671 mg/kg titanium leads to higher impurity levels of IMP-A compared to example 1, which has a lower titanium content (<251 mg/kg).
as §1, with “mg/kg titanium content leads to” for “mg/kg titanium leads to”

[6] = Storage stability of intermediates at room temperature; assay type: physicochemical
From the text: The alternative synthesis method to manufacture Intermediate VIII has several advantages over the method of manufacturing Intermediate VIII (or Intermediate G as it is called in U.S. Pat. No. […]): • The new Suzuki-reaction process offers much better control of impurities by avoiding the formation of N-methylation at the piperidine ring. The methylation of the piperidine-ring occurs in the original process according to U.S. Pat. No. 8,609,670 during the use of methanol and 4M hydrochloric acid in 1,4-dioxane and takes place via the in situ formed cancerogenic compound methyl chloride. […] 0.05 m % (0.02 mol %) Pd(amphos)2Cl2 is sufficient for the Suzuki cross-coupling reaction to complete the conversion in less than 3 hours. In literature, significant higher amounts of Pd-catalyst have been described so far [a) K.-T.-Wong et al, Org. […] Second, the reproducibility of yield and quality is very high and consistent as observed on production scale over several batches. […]

[7] = batch Example 1, Ti content <251 mg/kg
[8] = batch Example 2, Ti content 671 mg/kg

Chain of PDE4B subunit (Q07343 whole entry): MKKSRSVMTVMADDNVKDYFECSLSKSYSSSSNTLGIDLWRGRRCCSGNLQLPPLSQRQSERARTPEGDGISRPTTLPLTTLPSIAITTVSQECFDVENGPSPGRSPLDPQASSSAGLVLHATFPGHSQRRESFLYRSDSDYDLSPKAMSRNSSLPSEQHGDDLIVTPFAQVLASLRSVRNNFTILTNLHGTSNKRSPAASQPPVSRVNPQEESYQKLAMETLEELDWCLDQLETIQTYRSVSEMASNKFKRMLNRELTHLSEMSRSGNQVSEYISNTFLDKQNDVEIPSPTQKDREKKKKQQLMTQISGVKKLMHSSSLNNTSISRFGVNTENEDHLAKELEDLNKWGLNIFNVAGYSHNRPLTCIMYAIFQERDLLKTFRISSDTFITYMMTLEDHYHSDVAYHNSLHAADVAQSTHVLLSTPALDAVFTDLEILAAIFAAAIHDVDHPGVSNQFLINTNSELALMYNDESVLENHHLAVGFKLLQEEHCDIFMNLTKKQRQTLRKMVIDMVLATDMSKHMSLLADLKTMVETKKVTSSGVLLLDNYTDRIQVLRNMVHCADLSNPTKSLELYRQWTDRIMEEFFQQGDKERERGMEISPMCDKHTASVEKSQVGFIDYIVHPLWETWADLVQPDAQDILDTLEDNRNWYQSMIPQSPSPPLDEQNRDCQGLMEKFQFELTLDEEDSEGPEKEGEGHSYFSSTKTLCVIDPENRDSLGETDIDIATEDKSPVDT

- long-term stability regarding hydrolysis side-reactions [1]: > 12 months
SMILES: [O-][S@+]1CCc2nc(Cl)nc(NC3(CO)CCC3)c21 [Intermediate XVIII]

SMILES: [O-][S@+]1CCc2nc(N3CCC(c4ncc(Cl)cn4)CC3)nc(NC3(CO)CCC3)c21 [Compound XX, 1-({(5R)-2-[4-(5-CHLOROPYRIMIDINE-2-YL)PIPERIDINE-1-YL]-5-OXIDO-6,7-DIHYDROTHIENO[3,2-D]PYRIMIDINE-4-YL}AMINO)CYCLOBUTYL]METHANOL]
- PDE4 subunit preference (PDE4B subunit): preferentially inhibits the PDE4B subunit
- lung function decline ([2]; IPF patients already taking approved antifibrotics (Nintedanib or Pirfenidon) as background): reduction in lung function decline could be observed
- lung function decline ([2]; IPF patients not on approved antifibrotics as background treatment): reduction in lung function decline could be observed
- rate of lung function decline ([2]; IPF patients, within 12 weeks of treatment): reduction in the rate of lung function decline

- thermodynamic stability of crystalline form [3]: thermodynamically most stable form
SMILES: [O-][S@+]1CCc2nc(N3CCC(c4ncc(Cl)cn4)CC3)nc(NC3(CO)CCC3)c21 [Form B]

- time for full conversion of crystalline Form A into crystalline Form B [4]: less than 4 hours
SMILES: [O-][S@+]1CCc2nc(N3CCC(c4ncc(Cl)cn4)CC3)nc(NC3(CO)CCC3)c21 [Form A]

- IMP-A content in XVII after 1 week at 60° C. [5, 7]: 0.13%
- IMP-A content in XVII after 1 week at 90° C. [5, 7]: 0.16%
- IMP-A content in XVII at t = 0 [5, 7]: 0.10%
- IMP-B content in XVII after 1 week at 60° C. [5, 7]: 0.05%
- IMP-B content in XVII after 1 week at 90° C. [5, 7]: 0.34%
- IMP-B content in XVII at t = 0 [5, 7]: <0.05%
- IMP-A content in XVII after 1 week at 60° C. [5, 8]: 0.19%
- IMP-A content in XVII after 1 week at 90° C. [5, 8]: 0.32%
- IMP-A content in XVII at t = 0 [5, 8]: <0.05%
- IMP-B content in XVII after 1 week at 60° C. [5, 8]: <0.05%
- IMP-B content in XVII after 1 week at 90° C. [5, 8]: 0.54%
- IMP-B content in XVII at t = 0 [5, 8]: <0.05%
SMILES: [O-][S@+]1CCc2nc(Cl)nc(NC3(CO)CCC3)c21 [Intermediate XVII, 1-[[(5R)-2-chloro-6,7-dihydro-5-oxidothieno[3,2-d]pyrimidin-4-yl]amino]-cyclobutanemethanol]

- storage stability [6]: stable for storage at room temperature
SMILES: CC(C)(C)OC(=O)N1CC=C(c2ncc(Cl)cn2)CC1 [Intermediate VI]
